In patent US9315451B2, “Tetracycline compounds” (priority 2009, dated 2016):
Like-named read-outs stand apart in the source and are kept apart here.

Tested on: S. aureus Smith (ATCC 13709)
Experiment: Mouse systemic infection (septicemia) model, S. aureus Smith
Format: in vivo
Conditions: Staphylococcus aureus; for responders at 3 mg/kg: read-out: SA Smith septicemia survival IV (3 mg/kg); for responders at 30 mg/kg: read-out: SA Smith septicemia survival PO (30 mg/kg); for ED50: dose that prevents 50% of the mice from death, 48 hours
Description: Mouse Systemic Infection Protocol-S. aureus Smith Septicemia
Compounds were screened for antibacterial activity in vivo in a mouse systemic infection (septicemia) model. In the model, CD-1 female mice (18-22 grams) were injected IP with a S. aureus Smith (ATCC 13709) inoculum that results in 0% survival within 24 to 48 hours. The bacterial dose required to achieve this effect was previously established through virulence studies. At one hour post infection, mice received either […] IV or […] PO. Typically, six mice were treated per dose group. Animal survival was assessed and recorded for 48 hours. Percent survival at 48 hours was recorded and PD50 (mg/kg) was determined for each compound tested.

[1] = ATCC13709, iv, 48 h, CD-1 female mice, IV 3 mg/kg one hour post infection, survival at 48 hours
[2] = ATCC13709, po, 48 h, CD-1 female mice, PO 30 mg/kg one hour post infection, survival at 48 hours
[3] = ATCC13709, CD-1 female mice, PO, read-out: SA Smith septicemia PD50 PO

| SMILES | responders at 3 mg/kg [1] [%] | responders at 30 mg/kg [2] [%] | other results |
| --- | --- | --- | --- |
| CN(C)c1c(CNC2C3CC4CC(C3)CC2C4)cc(O)c2c1C[C@H]1C[C@H]3[C@H](N(C)C)C(O)=C(C(N)=O)C(=O)[C@@]3(O)C(O)=C1C2=O (some centres unmarked) [Compound S16-10-18] | 17 | 0 |  |
| CN(C)[C@@H]1C(O)=C(C(N)=O)C(=O)[C@@]2(O)C(O)=C3C(=O)c4c(O)cc(CNCC(C)(C)C)c(Cl)c4C[C@H]3C[C@@H]12 [Compound S15-13-5] | 50 | 17 |  |
| C[C@@H]1CCC[C@H](C)N1Cc1cc(O)c2c(c1F)C[C@H]1C[C@H]3[C@H](N(C)C)C(O)=C(C(N)=O)C(=O)[C@@]3(O)C(O)=C1C2=O [Compound S2-4-66] | 100 | 100 | ED50 [3]: 8.5 mg/kg |
| CN(C)[C@@H]1C(O)=C(C(N)=O)C(=O)[C@@]2(O)C(O)=C3C(=O)c4c(O)cc(CN5CCCCCC5)c(C(F)(F)F)c4C[C@H]3C[C@@H]12 [Compound S25-11-56] | 67 | 33 |  |
| CN(C)[C@@H]1C(O)=C(C(N)=O)C(=O)[C@@]2(O)C(O)=C3C(=O)c4c(O)cc(CNC5C6CC7CC(C6)CC5C7)c(F)c4C[C@H]3C[C@@H]12 (some centres unmarked) [Compound S1-14-28] | 33 | 17 |  |
| CN(C)[C@@H]1C(O)=C(C(N)=O)C(=O)[C@@]2(O)C(O)=C3C(=O)c4c(O)cc(CN5CCC6(CC5)CC6)c(F)c4C[C@H]3C[C@@H]12 [Compound S1-14-128] | 100 | 100 |  |
| CN(C)[C@@H]1C(O)=C(C(N)=O)C(=O)[C@@]2(O)C(O)=C3C(=O)c4c(O)cc(CN[C@@H]5CC6CCC5C6)c(Cl)c4C[C@H]3C[C@@H]12 (some centres unmarked) [Compound S15-13-23] | 83 | 50 |  |
| CN(C)[C@@H]1C(O)=C(C(N)=O)C(=O)[C@@]2(O)C(O)=C3C(=O)c4c(O)cc(CN(CC5CC5)C5CC5)c(F)c4C[C@H]3C[C@@H]12 [Compound S2-4-41] | 0 | 0 |  |
| CN(C)[C@@H]1C(O)=C(C(N)=O)C(=O)[C@@]2(O)C(O)=C3C(=O)c4c(cc(F)c(CNCC(C)(C)C)c4O)C[C@H]3C[C@@H]12 [Compound S19-8-1] | 100 | 100 | ED50 (ATCC13709, CD-1 female mice, IV, read-out: SA Smith septicemia PD50 IV): 0.36 mg/kg; ED50 [3]: 12.2 mg/kg |
| CC(C)[C@@H](C)NCc1cc(O)c2c(c1Cl)C[C@H]1C[C@H]3[C@H](N(C)C)C(O)=C(C(N)=O)C(=O)[C@@]3(O)C(O)=C1C2=O [Compound S15-13-8] | 67 | 50 |  |
| CCN(Cc1cc(O)c2c(c1F)C[C@H]1C[C@H]3[C@H](N(C)C)C(O)=C(C(N)=O)C(=O)[C@@]3(O)C(O)=C1C2=O)C1(C)CCCC1 [Compound S1-14-73] | 50 | 75 |  |
| CN(C)[C@@H]1C(O)=C(C(N)=O)C(=O)[C@@]2(O)C(O)=C3C(=O)c4c(O)cc(CN[C@H]5CC6CCC5C6)c(C(F)(F)F)c4C[C@H]3C[C@@H]12 (some centres unmarked) [Compound S25-11-12] | 0 | 20 |  |
| CN(C)[C@@H]1C(O)=C(C(N)=O)C(=O)[C@@]2(O)C(O)=C3C(=O)c4c(O)cc(CN5CC6CCCCC6C5)c(Cl)c4C[C@H]3C[C@@H]12 (some centres unmarked) [Compound S15-13-117] | 33 | 20 |  |
| CC(C)[C@@H](C)N(C)Cc1cc(O)c2c(c1F)C[C@H]1C[C@H]3[C@H](N(C)C)C(O)=C(C(N)=O)C(=O)[C@@]3(O)C(O)=C1C2=O [Compound S2-4-57] | 50 | 33 |  |
| CCC1(CNCc2cc(O)c3c(c2F)C[C@H]2C[C@H]4[C@H](N(C)C)C(O)=C(C(N)=O)C(=O)[C@@]4(O)C(O)=C2C3=O)CCC1 [Compound S1-14-91] | 17 | 60 |  |
| CN(C)[C@@H]1C(O)=C(C(N)=O)C(=O)[C@@]2(O)C(O)=C3C(=O)c4c(O)cc(CN(CCF)CC5CC5)c(F)c4C[C@H]3C[C@@H]12 [Compound S1-14-31] |  |  | responders at 3 mg/kg (ATCC13709, iv, 48 h): 0%; responders at 30 mg/kg (ATCC13709, po, 48 h): 0% |
| CCN(Cc1cc(O)c2c(c1F)C[C@H]1C[C@H]3[C@H](N(C)C)C(O)=C(C(N)=O)C(=O)[C@@]3(O)C(O)=C1C2=O)CC1CCCC1 [Compound S2-4-62] | 17 | 25 |  |
| COc1c(CN2CCCC2(C)C)cc(O)c2c1C[C@H]1C[C@H]3[C@H](N(C)C)C(O)=C(C(N)=O)C(=O)[C@@]3(O)C(O)=C1C2=O [Compound S24-9-10] | 100 | 100 |  |
| CN(C)c1c(CN(C)C2(C)CCC2)cc(O)c2c1C[C@H]1C[C@H]3[C@H](N(C)C)C(O)=C(C(N)=O)C(=O)[C@@]3(O)C(O)=C1C2=O [Compound S16-10-107] | 100 | 100 |  |
| CN(C)[C@@H]1C(O)=C(C(N)=O)C(=O)[C@@]2(O)C(O)=C3C(=O)c4c(O)cc(CN(C)C5(C6CC6)CC5)c(F)c4C[C@H]3C[C@@H]12 [Compound S2-4-60] | 17 | 33 |  |
| CN(C)[C@@H]1C(O)=C(C(N)=O)C(=O)[C@@]2(O)C(O)=C3C(=O)c4c(O)cc(CN5CCCCC5(C)C)c(F)c4C[C@H]3C[C@@H]12 [Compound S6-4-1] | 100 | 100 |  |
| CCC(C)(C)N(C)Cc1cc(O)c2c(c1OC)C[C@H]1C[C@H]3[C@H](N(C)C)C(O)=C(C(N)=O)C(=O)[C@@]3(O)C(O)=C1C2=O [Compound S24-9-19] | 100 | 100 |  |
| CN(Cc1ccccc1)Cc1cc(O)c2c(c1F)C[C@H]1C[C@H]3[C@H](N(C)C)C(O)=C(C(N)=O)C(=O)[C@@]3(O)C(O)=C1C2=O [Compound S1-14-46] | 0 | 0 |  |
| CN(C)[C@@H]1C(O)=C(C(N)=O)C(=O)[C@@]2(O)C(O)=C3C(=O)c4c(O)cc(CN5CCC(C6CC6)CC5)c(F)c4C[C@H]3C[C@@H]12 [Compound S1-14-134] | 50 | 17 |  |
| CN(C)C(=O)C(C)(C)N(C)Cc1cc(O)c2c(c1Cl)C[C@H]1C[C@H]3[C@H](N(C)C)C(O)=C(C(N)=O)C(=O)[C@@]3(O)C(O)=C1C2=O [Compound S15-13-227] | 17 | 0 |  |
| CN(C)[C@@H]1C(O)=C(C(N)=O)C(=O)[C@@]2(O)C(O)=C3C(=O)c4c(O)cc(C(C)(C)N(C)CC5CCCC5)c(F)c4C[C@H]3C[C@@H]12 [Compound S27-9-5] | 83 | 67 |  |
| CN(C)[C@@H]1C(O)=C(C(N)=O)C(=O)[C@@]2(O)C(O)=C3C(=O)c4c(O)cc(CN5C6CCC5CC6)c(Cl)c4C[C@H]3C[C@@H]12 [Compound S15-13-222] |  |  | responders at 3 mg/kg (ATCC13709, CD-1 female mice, IV 3 mg/kg one hour post infection, survival at 48 hours): 100%; responders at 30 mg/kg (ATCC13709, CD-1 female mice, PO 30 mg/kg one hour post infection, survival at 48 hours): 100% |
| CN(C)[C@@H]1C(O)=C(C(N)=O)C(=O)[C@@]2(O)C(O)=C3C(=O)c4c(O)cc(CN5CC6CCCC6C5)c(Cl)c4C[C@H]3C[C@@H]12 (some centres unmarked) [Compound S15-13-184] | 17 | 0 |  |
